Source: ChEMBL document CHEMBL1142640, “New natural product isolation and comparison of the secondary metabolite content of three distinct samples of the sea hare Aplysia dactylomela from tenerife” (J Nat Prod, 2000)
In brackets after ≈: the same amount, converted by molar mass. Activity calls are given as the source filed them. The calls are words filed in the database; no cut-off is given here.

What was measured:
HepG2 = experiment: Cytotoxicity against human HepG2 cells; type: functional, cell-based
[Chlorella] fusca [1] = Antialgal activity against Chlorella fusca assessed as no colonies of test organism growing within inhibition zone at 50 ug/disk; type: functional; conditions: Scenedesmus fuscus; read-out: IZ
Microbotryum violaceum [2] = experiment: Antifungal activity against Microbotryum violaceae at 50 ug/disk; type: functional
KB = experiment: Cytotoxicity against human KB cells; type: functional, cell-based
[3] = tested on: Aspergillus pseudoglaucus; experiment: Antifungal activity against Eurotium repens at 50 ug/disk; type: functional
[4] = Antibacterial activity against Escherichia coli assessed as few colonies of test organism growing within inhibition zone at 50 ug/disk; conditions: read-out: IZ
MCF7 = experiment: Cytotoxicity against human MCF7 cells; type: functional, cell-based
Fusarium oxysporum = experiment: Antifungal activity against Fusarium oxysporum at 50 ug/disk; type: functional
ZR-75-1 = experiment: Cytotoxicity against human ZR-75-1 cells; type: functional, cell-based
Artemia salina = experiment: (§1) Toxicity in Artemia salina at 0.5 mg/mL after 48 hrs; type: organism-based; conditions: in vivo, 48 h
Lu1 = experiment: Cytotoxicity against human Lu1 cells; type: functional, cell-based
[5] = Cytotoxicity against human HMO2 cells; type: functional, cell-based
Mycotypha microspora [6] = experiment: Antifungal activity against Mycotypha microspora at 50 ug/disk; type: functional
Priestia megaterium [7] = experiment: Antibacterial activity against Bacillus megaterium at 50 ug/disk; type: functional
Escherichia coli = experiment: Antibacterial activity against Escherichia coli at 50 ug/disk; type: functional
[Chlorella] fusca [8] = Antialgal activity against Chlorella fusca at 50 ug/disk; type: functional; conditions: Scenedesmus fuscus
Microbotryum violaceum [9] = experiment: Antifungal activity against Microbotryum violaceae assessed as few colonies of test organism growing within inhibition zone at 50 ug/disk; type: functional; conditions: read-out: IZ
[10] = tested on: Aspergillus pseudoglaucus; experiment: Antifungal activity against Eurotium repens assessed as few colonies of test organism growing within inhibition zone at 50 ug/disk; type: functional; conditions: read-out: IZ
HeLa = experiment: Cytotoxicity against human HeLa cells; type: functional, cell-based
[11] = as §1; type: organism-based; conditions: in vivo, read-out: Activity
[12] = biological target: Human immunodeficiency virus type 1 reverse transcriptase (Human immunodeficiency virus 1) (UniProt Q72547); experiment: Inhibition of HIV1 reverse transcriptase
Caenorhabditis elegans = experiment: Nematicidal activity against Caenorhabditis elegans; type: functional, organism-based
[13] = Toxicity in Artemia salina at 0.5 mg/mL after 24 hrs; type: organism-based; conditions: in vivo, read-out: Activity
Mycotypha microspora [14] = experiment: Antifungal activity against Mycotypha microspora assessed as few colonies of test organism growing within inhibition zone at 50 ug/disk; type: functional; conditions: read-out: IZ
[15] = biological target: Tyrosine-protein kinase Lck (Homo sapiens) (UniProt P06239); experiment: Inhibition of p56lck
Priestia megaterium [16] = experiment: Antibacterial activity against Bacillus megaterium assessed as no colonies of test organism growing within inhibition zone at 50 ug/disk; type: functional; conditions: read-out: IZ
Microbotryum violaceum [17] = experiment: Antifungal activity against Microbotryum violaceae assessed as no colonies of test organism growing within inhibition zone at 50 ug/disk; type: functional; conditions: read-out: IZ
[Chlorella] fusca [18] = Antialgal activity against Chlorella fusca assessed as few colonies of test organism growing within inhibition zone at 50 ug/disk; type: functional; conditions: Scenedesmus fuscus; read-out: IZ

Sequence of Tyrosine-protein kinase Lck (Homo sapiens) (P06239 2-509 limits assumed): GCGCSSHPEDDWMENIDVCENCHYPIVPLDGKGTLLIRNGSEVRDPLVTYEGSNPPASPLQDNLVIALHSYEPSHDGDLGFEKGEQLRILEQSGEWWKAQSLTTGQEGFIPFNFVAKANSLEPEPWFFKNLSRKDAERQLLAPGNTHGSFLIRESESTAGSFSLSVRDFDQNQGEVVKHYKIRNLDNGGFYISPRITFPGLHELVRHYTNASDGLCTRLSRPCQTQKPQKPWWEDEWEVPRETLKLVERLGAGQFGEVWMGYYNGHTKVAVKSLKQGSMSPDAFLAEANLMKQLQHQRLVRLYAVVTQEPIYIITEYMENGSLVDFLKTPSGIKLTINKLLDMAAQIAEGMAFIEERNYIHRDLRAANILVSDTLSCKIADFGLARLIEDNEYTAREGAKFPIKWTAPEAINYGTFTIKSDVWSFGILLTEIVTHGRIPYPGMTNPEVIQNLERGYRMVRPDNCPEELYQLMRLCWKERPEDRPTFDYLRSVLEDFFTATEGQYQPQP

For `C[C@](Cl)(/C=C/Br)[C@@H](Cl)/C=C/C(=C\Cl)C(Cl)Cl`, the IC50 (HepG2) was 1 µg/mL (≈ 2.58 µM), the zone of inhibition at 50 µg/disc ([Chlorella] fusca [1]) was 1 mm and the Activity (Microbotryum violaceum [2]) was “inactive”. For the same molecule, the IC50 (KB) was over 25 µg/mL, the Activity [3] was “inactive” and the zone of inhibition at 50 µg/disc [4] was 2 mm. The IC50 (MCF7) was 1.5 µg/mL (≈ 3.87 µM), the Activity (Fusarium oxysporum) was “inactive” and the IC50 (ZR-75-1) was over 25 µg/mL. The Activity (Artemia salina) was “Not Active”, the IC50 (Lu1) was over 25 µg/mL and the IC50 [5] was 1.1 µg/mL (≈ 2.84 µM).
For `CC(=O)O[C@@H]1C[C@@H](Br)C(C)(C)O[C@]1(C)[C@H]1CC[C@](C)(Cl)[C@@H](Br)C1`, the Activity (Microbotryum violaceum [2]) was “inactive”, the Activity [3] was “inactive” and the Activity (Mycotypha microspora [6]) was “inactive”. The Activity (Priestia megaterium [7]) was “inactive”, the Activity (Escherichia coli) was “inactive” and the Activity ([Chlorella] fusca [8]) was “inactive”. For the same molecule, the Activity (Fusarium oxysporum) was “inactive” and the Activity (Artemia salina) was “Not Active”.
In the case of `CC(=O)O[C@@H](C=C(C)C)C/C(C)=C1\CC[C@](C)(Br)[C@@H](Cl)C1`, the IC50 (KB) is reported as over 25 µg/mL, the Activity (Priestia megaterium [7]) is reported as “inactive” and the zone of inhibition at 50 µg/disc (Microbotryum violaceum [9]) is reported as 1 mm. For the same molecule, the Activity (Escherichia coli) was “inactive”, the zone of inhibition at 50 µg/disc [10] was 2 mm and the Activity ([Chlorella] fusca [8]) was “inactive”. For the same molecule, the IC50 (ZR-75-1) was over 25 µg/mL, the Activity (Artemia salina) was “Not Active” and the IC50 (Lu1) was over 25 µg/mL.
For `C[C@@]1(Cl)C[C@@](C)(Br)[C@H](/C=C/Cl)C[C@@H]1Br`, the IC50 (HeLa) was 1 µg/mL (≈ 2.74 µM), the IC50 (KB) was over 25 µg/mL and the zone of inhibition at 50 µg/disc [4] was 1 mm. The zone of inhibition at 50 µg/disc (Microbotryum violaceum [9]) was 1 mm, the zone of inhibition at 50 µg/disc [10] was 1 mm and the Activity ([Chlorella] fusca [8]) was “inactive”. It also gave an IC50 (ZR-75-1) of over 25 µg/mL, a mortality at 48 h, 0.5 mg/mL [11] of 90% and an IC50 (Lu1) of over 25 µg/mL.
In the case of `C=C1C[C@H](O)[C@H](Br)C(C)(C)[C@@]12CC[C@](C)(Br)[C@@H](Cl)C2`, the IC50 (HeLa) is reported as 10 µg/mL (≈ 24.1 µM), the “inhibition zone (IZ)” value (Microbotryum violaceum [2]) is reported as “inactive” and the “inhibition zone (IZ)” value [3] is reported as “inactive”. The “inhibition zone (IZ)” value (Mycotypha microspora [6]) was “inactive”, the Activity (Priestia megaterium [7]) was “inactive” and the “inhibition zone (IZ)” value (Escherichia coli) was “inactive”. The “inhibition zone (IZ)” value ([Chlorella] fusca [8]) was “inactive”, the “inhibition zone (IZ)” value (Fusarium oxysporum) was “inactive” and the “inhibition zone (Toxicity)” value (Artemia salina) was “Not Active”.
With `C=C1C[C@H](OC(C)=O)[C@H](Br)C(C)(C)[C@@]12CC[C@](C)(Br)[C@@H](Cl)C2` the IC50 (KB) was over 25 µg/mL, the Activity (Priestia megaterium [7]) was “inactive” and the Activity (Escherichia coli) was “inactive”. For the same molecule, the zone of inhibition at 50 µg/disc [10] was 1 mm, the Activity ([Chlorella] fusca [8]) was “inactive” and the IC50 (ZR-75-1) was over 25 µg/mL. The Activity (Artemia salina) was “Not Active” and the IC50 (Lu1) was over 25 µg/mL.
In the case of `CC1(C)C[C@@H](Br)C[C@](C)(O)[C@@]12C=C/C(=C/Br)CC2`, the IC50 (HepG2) is reported as under 1 µg/mL, the Activity [12] is reported as “inactive” and the Activity (Caenorhabditis elegans) is reported as “Active”. For the same molecule, the IC50 (HeLa) was 4.5 µg/mL (≈ 11.9 µM), the IC50 (KB) was over 25 µg/mL and the mortality at 24 h, 0.5 mg/mL [13] was 100%. The zone of inhibition at 50 µg/disc (Mycotypha microspora [14]) was 1 mm, the Activity [15] was “inactive” and the zone of inhibition at 50 µg/disc [10] was 2 mm. The IC50 (MCF7) was under 1 µg/mL, the Activity ([Chlorella] fusca [8]) was “inactive” and the zone of inhibition at 50 µg/disc (Priestia megaterium [16]) was 1 mm. The IC50 (ZR-75-1) was over 25 µg/mL, the zone of inhibition at 50 µg/disc (Microbotryum violaceum [17]) was 3 mm and the IC50 (Lu1) was over 25 µg/mL. It also gave an IC50 [5] of 17 µg/mL (≈ 45 µM).
With `CC1(C)O[C@](C)([C@H]2CC[C@](C)(Cl)[C@@H](Br)C2)CC[C@H]1Br` [CAESPITANE] the zone of inhibition at 50 µg/disc ([Chlorella] fusca [18]) was 1 mm, the Activity (Microbotryum violaceum [2]) was “inactive” and the IC50 (KB) was over 25 µg/mL. For the same molecule, the Activity [3] was “inactive”, the Activity (Priestia megaterium [7]) was “inactive” and the Activity (Escherichia coli) was “inactive”. The Activity (Fusarium oxysporum) was “inactive”, the IC50 (ZR-75-1) was over 25 µg/mL and the mortality at 48 h, 0.5 mg/mL [11] was 40%. For the same molecule, the IC50 (Lu1) was over 25 µg/mL.
In the case of `CC1(C)O[C@](C)([C@H]2CC[C@](C)(Cl)[C@@H](Br)C2)[C@H](O)C[C@H]1Br` [CAESPITOL], the zone of inhibition at 50 µg/disc ([Chlorella] fusca [18]) is reported as 3 mm, the Activity [12] is reported as “inactive” and the Activity (Caenorhabditis elegans) is reported as “Active”. The IC50 (HeLa) was 100 µg/mL (≈ 231 µM), the Activity (Microbotryum violaceum [2]) was “inactive” and the IC50 (KB) was over 25 µg/mL. The Activity [3] was “inactive”, the Activity (Priestia megaterium [7]) was “inactive” and the Activity (Escherichia coli) was “inactive”. For the same molecule, the Activity [15] was “inactive”, the Activity (Fusarium oxysporum) was “inactive” and the IC50 (ZR-75-1) was over 25 µg/mL. For the same molecule, the mortality at 48 h, 0.5 mg/mL [11] was 70% and the IC50 (Lu1) was over 25 µg/mL.
